Measured values: PubChem BioAssay AID1963983 (Molecular Pharmacology Branch, DTP, NCI, 2024)
pIC50: −log10 of the molar value. Each block holds one compound with its values, some of them ahead of it.

Tested on: 186277-243-T-J2-PDC multi-cell spheroid viability
Assay: Anticancer human tumor 186277-243-T-J2-PDC patient-derived colon adenocarcinoma cell line growth inhibition [PI3K]
Details: for pIC50: curve of first compound; for viability, T/C: stronger effect = lower value
Summary of the method: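 Stroma-containing spheroids: tumor line, pooled-donor HUVEC, hMSC. Treatments: targeted agents with PI3K inhibitors. Dosing: clinically relevant, half-log spacing, 10 microM ceiling without known Cmax. Read-out: cell viability.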

[1] = second compound 0.00316 µM, first compound 0.0316 µM
[2] = second compound 0.00316 µM, first compound 0.1 µM
[3] = second compound 0.00316 µM, first compound 0.316 µM
[4] = second compound 0.00316 µM, first compound 1 µM
[5] = second compound 0.00316 µM, first compound 3.16 µM
[6] = second compound 0.00316 µM, first compound 10 µM
[7] = second compound 0.01 µM, first compound 0.0316 µM
[8] = second compound 0.01 µM, first compound 0.1 µM
[9] = second compound 0.01 µM, first compound 0.316 µM
[10] = second compound 0.01 µM, first compound 1 µM
[11] = second compound 0.01 µM, first compound 3.16 µM
[12] = second compound 0.01 µM, first compound 10 µM
[13] = second compound 0.0316 µM, first compound 0.0316 µM
[14] = second compound 0.0316 µM, first compound 0.1 µM
[15] = second compound 0.0316 µM, first compound 0.316 µM
[16] = second compound 0.0316 µM, first compound 1 µM
[17] = second compound 0.0316 µM, first compound 3.16 µM
[18] = second compound 0.0316 µM, first compound 10 µM
[19] = second compound 0.1 µM, first compound 0.0316 µM
[20] = second compound 0.1 µM, first compound 0.1 µM
[21] = second compound 0.1 µM, first compound 0.316 µM
[22] = second compound 0.1 µM, first compound 1 µM
[23] = second compound 0.1 µM, first compound 3.16 µM
[24] = second compound 0.1 µM, first compound 10 µM
[25] = second compound 0.316 µM, first compound 0.0316 µM
[26] = second compound 0.316 µM, first compound 0.1 µM
[27] = second compound 0.316 µM, first compound 0.316 µM
[28] = second compound 0.316 µM, first compound 1 µM
[29] = second compound 0.316 µM, first compound 3.16 µM
[30] = second compound 0.316 µM, first compound 10 µM
[31] = second compound 1 µM, first compound 0.0316 µM
[32] = second compound 1 µM, first compound 0.1 µM
[33] = second compound 1 µM, first compound 0.316 µM
[34] = second compound 1 µM, first compound 1 µM
[35] = second compound 1 µM, first compound 3.16 µM
[36] = second compound 1 µM, first compound 10 µM
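Further: spheroids exposed to compounds for seven days before viability reading.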
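Wherever viability, T/C is given: 100% = DMSO vehicle control viability.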

- pIC50 (second compound 0.00316 µM): 5.31
- pIC50 (second compound 0.01 µM): 5.25
- pIC50 (second compound 0.0316 µM): 5.29
- pIC50 (second compound 0.1 µM): > 7.50
- pIC50 (second compound 0.316 µM): > 7.50
- pIC50 (second compound 1 µM): > 7.50
SMILES: CCCS(=O)(=O)Nc1ccc(F)c(C(=O)c2c[nH]c3ncc(-c4ccc(Cl)cc4)cc23)c1F + COc1c(OCCCN2CCOCC2)ccc2c3n(c(=NC(=O)c4cnc(N)nc4)nc12)CCN3
- viability, T/C [1]: 114%
- viability, T/C [2]: 99.1%
- viability, T/C [3]: 84.9%
- viability, T/C [4]: 83.5%
- viability, T/C [5]: 79.4%
- viability, T/C [6]: 14.2%
- viability, T/C [7]: 105%
- viability, T/C [8]: 90.1%
- viability, T/C [9]: 110%
- viability, T/C [10]: 90.3%
- viability, T/C [11]: 87%
- viability, T/C [12]: 13.8%
- viability, T/C [13]: 81.1%
- viability, T/C [14]: 68.5%
- viability, T/C [15]: 96.3%
- viability, T/C [16]: 88.2%
- viability, T/C [17]: 77.9%
- viability, T/C [18]: 12.2%
- viability, T/C [19]: 23.1%
- viability, T/C [20]: 27.3%
- viability, T/C [21]: 29.4%
- viability, T/C [22]: 46.7%
- viability, T/C [23]: 46%
- viability, T/C [24]: 7.08%
- viability, T/C [25]: 7.65%
- viability, T/C [26]: 8.23%
- viability, T/C [27]: 7.39%
- viability, T/C [28]: 8.35%
- viability, T/C [29]: 12.3%
- viability, T/C [30]: 2.99%
- viability, T/C [31]: 3.27%
- viability, T/C [32]: 3.82%
- viability, T/C [33]: 3.96%
- viability, T/C [34]: 4.58%
- viability, T/C [35]: 7.64%
- viability, T/C [36]: 2.38%

- pIC50 (second compound 0.00316 µM): < 5.00
- pIC50 (second compound 0.01 µM): 5.10
- pIC50 (second compound 0.0316 µM): 5.79
- pIC50 (second compound 0.1 µM): > 7.50
- pIC50 (second compound 0.316 µM): > 7.50
- pIC50 (second compound 1 µM): > 7.50
SMILES: C[C@@H](NC(=O)c1ncnc(N)c1Cl)c1ncc(C(=O)Nc2cc(C(F)(F)F)c(Cl)cn2)s1 + COc1c(OCCCN2CCOCC2)ccc2c3n(c(=NC(=O)c4cnc(N)nc4)nc12)CCN3
- viability, T/C [1]: 97.9%
- viability, T/C [2]: 94%
- viability, T/C [3]: 107%
- viability, T/C [4]: 90.4%
- viability, T/C [5]: 108%
- viability, T/C [6]: 67.7%
- viability, T/C [7]: 128%
- viability, T/C [8]: 102%
- viability, T/C [9]: 113%
- viability, T/C [10]: 96.9%
- viability, T/C [11]: 98.4%
- viability, T/C [12]: 38.7%
- viability, T/C [13]: 87.7%
- viability, T/C [14]: 82%
- viability, T/C [15]: 81.6%
- viability, T/C [16]: 68.5%
- viability, T/C [17]: 25.9%
- viability, T/C [18]: 5.51%
- viability, T/C [19]: 37.9%
- viability, T/C [20]: 30.7%
- viability, T/C [21]: 25.7%
- viability, T/C [22]: 13.2%
- viability, T/C [23]: 7.38%
- viability, T/C [24]: 4.45%
- viability, T/C [25]: 7.07%
- viability, T/C [26]: 7.19%
- viability, T/C [27]: 7.95%
- viability, T/C [28]: 6.31%
- viability, T/C [29]: 1.83%
- viability, T/C [30]: 1.23%
- viability, T/C [31]: 4.1%
- viability, T/C [32]: 2.89%
- viability, T/C [33]: 2.41%
- viability, T/C [34]: 2.48%
- viability, T/C [35]: 1.54%
- viability, T/C [36]: 0.23%

- pIC50 (second compound 0.00316 µM): < 7.00
- pIC50 (second compound 0.01 µM): < 7.00
- pIC50 (second compound 0.0316 µM): 7.67
- pIC50 (second compound 0.1 µM): > 9.50
- pIC50 (second compound 0.316 µM): > 9.50
- pIC50 (second compound 1 µM): > 9.50
SMILES: Cn1ncnc1[C@H]1c2n[nH]c(=O)c3cc(F)cc(c23)N[C@@H]1c1ccc(F)cc1 + COc1c(OCCCN2CCOCC2)ccc2c3n(c(=NC(=O)c4cnc(N)nc4)nc12)CCN3
- viability, T/C (second compound 0.00316 µM, first compound 0.000316 µM): 102%
- viability, T/C (second compound 0.00316 µM, first compound 0.001 µM): 100%
- viability, T/C (second compound 0.00316 µM, first compound 0.00316 µM): 105%
- viability, T/C (second compound 0.00316 µM, first compound 0.01 µM): 80.9%
- viability, T/C [1]: 88%
- viability, T/C [2]: 79.5%
- viability, T/C (second compound 0.01 µM, first compound 0.000316 µM): 93.8%
- viability, T/C (second compound 0.01 µM, first compound 0.001 µM): 96%
- viability, T/C (second compound 0.01 µM, first compound 0.00316 µM): 83.6%
- viability, T/C (second compound 0.01 µM, first compound 0.01 µM): 98.3%
- viability, T/C [7]: 85.5%
- viability, T/C [8]: 68.7%
- viability, T/C (second compound 0.0316 µM, first compound 0.000316 µM): 66%
- viability, T/C (second compound 0.0316 µM, first compound 0.001 µM): 63.8%
- viability, T/C (second compound 0.0316 µM, first compound 0.00316 µM): 58.9%
- viability, T/C (second compound 0.0316 µM, first compound 0.01 µM): 54.6%
- viability, T/C [13]: 47.2%
- viability, T/C [14]: 40.8%
- viability, T/C (second compound 0.1 µM, first compound 0.000316 µM): 22.2%
- viability, T/C (second compound 0.1 µM, first compound 0.001 µM): 15.9%
- viability, T/C (second compound 0.1 µM, first compound 0.00316 µM): 16.7%
- viability, T/C (second compound 0.1 µM, first compound 0.01 µM): 13%
- viability, T/C [19]: 14.1%
- viability, T/C [20]: 9.78%
- viability, T/C (second compound 0.316 µM, first compound 0.000316 µM): 4.1%
- viability, T/C (second compound 0.316 µM, first compound 0.001 µM): 7.07%
- viability, T/C (second compound 0.316 µM, first compound 0.00316 µM): 5.01%
- viability, T/C (second compound 0.316 µM, first compound 0.01 µM): 6.2%
- viability, T/C [25]: 4.54%
- viability, T/C [26]: 4.17%
- viability, T/C (second compound 1 µM, first compound 0.000316 µM): 3.72%
- viability, T/C (second compound 1 µM, first compound 0.001 µM): 4.99%
- viability, T/C (second compound 1 µM, first compound 0.00316 µM): 1.76%
- viability, T/C (second compound 1 µM, first compound 0.01 µM): 1.73%
- viability, T/C [31]: 3.49%
- viability, T/C [32]: 2.04%
